Measurements: publication PMC7577125 (Antimicrobial Agents and Chemotherapy, 2020)
Read-outs that look alike come from different tables or passages of the source.

Experiments:
[1] = test system: HBV (genotype D, subtype ayw); assay: HBV replication assay in HepAD38 cells; type: cell-based, Hepatitis B virus
[2] = test system: HBV; assay: HBV infection of HepG2-NTCP cells; type: cell-based; conditions: Hepatitis B virus
[3] = test system: HBV; assay: HBV infection of primary human hepatocytes (PHHs); type: cell-based; conditions: Hepatitis B virus, Hepatocyte, PHH
[4] = test system: HBV; assay: De novo infection models (HepG2-NTCP and PHH), summary; type: cell-based, Hepatitis B virus; conditions: HepG2-NTCP and PHH cells, tested at up to 100 nM
[5] = test system: HBV cccDNA; assay: cccDNA formation assay in infected HepG2-NTCP cells (Southern blot); type: cell-based; conditions: Hepatitis B virus, 96 h, 1.00 μM, 4 days, read-out: cccDNA % of Control
[6] = test system: HBV cccDNA; assay: cccDNA formation assay in infected PHH cells (Southern blot); type: cell-based; conditions: Hepatitis B virus, 96 h, 0.10 μM, 4 days, read-out: cccDNA % of Control
[7] = test system: HBV capsid DNA; assay: Incoming capsid assay in HepG2-NTCP cells; type: cell-based; conditions: Hepatitis B virus, 1.00 μM, 3 h, read-out: Capsid DNA % of Control
[8] = test system: HBV capsid DNA; assay: Incoming capsid assay in PHH cells; type: cell-based; conditions: Hepatitis B virus, 0.10 μM, 3 h, read-out: Capsid DNA % of Control
[9] = test system: HBV; assay: Extracellular HBV DNA and pgRNA in HepAD38 cells (qPCR, RT-qPCR); type: cell-based, Hepatitis B virus; conditions: for Extracellular DNA content (% of DMSO control) / Extracellular pgRNA content (% of DMSO control): HepAD38, concn ETV 0.01, ABI-H0731 2.0, GLS4 0.5, NVR 3-778 2.5, AT-130 0.8, VRD-32 0.8 μM
Source text: For HBV RNA Northern blot analysis, total cellular RNA or encapsidated pgRNA samples were resolved in a 1.5% agarose gel containing 2.2 M formaldehyde and transferred onto a Hybond-XL membrane (GE Healthcare). For DNA Southern blot analysis, HBV core DNA or cccDNA samples were resolved by electrophoresis in a 1.2% agarose gel and blotted onto a Hybond-XL membrane. Membranes were probed with either an [α-^32P]UTP (3,000 Ci/mmol; PerkinElmer)-labeled plus-strand-specific (for Northern blot hybridization) or minus-strand-specific (for Southern blot hybridization) HBV riboprobe and exposed to a phosphorimager screen. Extracellular HBV DNA and RNA were copurified from the culture medium of induced HepAD38 cells by using a MinElute virus vacuum kit (Qiagen). Viral DNA was quantified using the above-mentioned qPCR method directly, and HBV RNA was detected by RT-qPCR with the same core region primer/probe set after the removal of DNA contamination by DNase I (Thermo Fisher) treatment.

[10] = test system: HBV genotype A; assay: microbe, parasite or virus in culture; type: cell-based; conditions: Hepatitis B virus, read-out: Mean antiviral EC50
[11] = test system: HBV genotype B; assay: microbe, parasite or virus in culture; type: cell-based; conditions: Hepatitis B virus, read-out: Mean antiviral EC50
[12] = test system: HBV genotype C; assay: microbe, parasite or virus in culture; type: cell-based; conditions: Hepatitis B virus, read-out: Mean antiviral EC50
[13] = test system: HBV genotype D; assay: microbe, parasite or virus in culture; type: cell-based; conditions: Hepatitis B virus, read-out: Mean antiviral EC50
[14] = test system: HBV genotypes A, B, C, and D; assay: microbe, parasite or virus in culture; type: cell-based; conditions: Hepatitis B virus, read-out: VR EC50s
[15] = test system: NrtI^R HBV (rtL180M/M204V); assay: microbe, parasite or virus in culture; type: cell-based, Hepatitis B virus; conditions: Hepatitis B virus
[16] = test system: HBV Cp Wild type; assay: microbe, parasite or virus in culture; type: cell-based, Hepatitis B virus; conditions: for EC50: Hepatitis B virus, Huh-7, read-out: Mean EC50
[17] = test system: HBV Cp P25A; assay: microbe, parasite or virus in culture; type: cell-based, Hepatitis B virus; conditions: for EC50: Hepatitis B virus, Huh-7, read-out: Mean EC50
[18] = test system: HBV Cp D29G; assay: microbe, parasite or virus in culture; type: cell-based, Hepatitis B virus; conditions: for EC50: Hepatitis B virus, Huh-7, read-out: Mean EC50
[19] = test system: HBV Cp T33N; assay: microbe, parasite or virus in culture; type: cell-based, Hepatitis B virus; conditions: for EC50: Hepatitis B virus, Huh-7, read-out: Mean EC50
[20] = test system: HBV Cp Y38C; assay: microbe, parasite or virus in culture; type: cell-based, Hepatitis B virus; conditions: for EC50: Hepatitis B virus, Huh-7, read-out: Mean EC50
[21] = test system: HBV Cp Y38F; assay: microbe, parasite or virus in culture; type: cell-based, Hepatitis B virus; conditions: for EC50: Hepatitis B virus, Huh-7, read-out: Mean EC50
[22] = test system: HBV Cp I105L; assay: microbe, parasite or virus in culture; type: cell-based, Hepatitis B virus; conditions: for EC50: Hepatitis B virus, Huh-7, read-out: Mean EC50
[23] = test system: HBV Cp I105T; assay: microbe, parasite or virus in culture; type: cell-based, Hepatitis B virus; conditions: for EC50: Hepatitis B virus, Huh-7, read-out: Mean EC50
[24] = test system: HBV Cp T109I; assay: microbe, parasite or virus in culture; type: cell-based, Hepatitis B virus; conditions: for EC50: Hepatitis B virus, Huh-7, read-out: Mean EC50
[25] = test system: HBV Cp T109M; assay: microbe, parasite or virus in culture; type: cell-based, Hepatitis B virus; conditions: for EC50: Hepatitis B virus, Huh-7, read-out: Mean EC50
[26] = test system: HBV Cp Y118F; assay: microbe, parasite or virus in culture; type: cell-based, Hepatitis B virus; conditions: for EC50: Hepatitis B virus, Huh-7, read-out: Mean EC50
[27] = test system: HBV; assay: Dose response of ETV and ABI-H0731 alone and in combination in induced HepAD38 cells; type: cell-based, Hepatitis B virus; conditions: 100× VR EC50 of ETV
Experimental: Viral replication was evaluated by quantifying the levels of total HBV DNA in the cells by qPCR. […] In both cases, the data are plotted as a function of each drug’s concentration relative to its VR EC50.

[28] = test system: HBV; assay: HBV RNA/DNA analyses in induced HepAD38 cells (Northern/Southern blot); type: cell-based, Hepatitis B virus; conditions: HepAD38, 10-fold over VR EC50
[29] = Hepatitis B virus, HePAD38, HepAD38, total intracellular viral DNA, read-out: Mean EC50, viral DNA
[30] = total intracellular viral DNA, read-out: Mean EC50, viral DNA

| SMILES | EC50 [1, 29] [nM] | EC50 ([2]; read-out: Mean EC50, HBeAg) [nM] | EC50 ([2]; read-out: Mean EC50, HBsAg) [nM] | EC50 ([2]; read-out: Mean EC50, pgRNA) [nM] | EC50 [2, 30] [nM] | EC50 ([3]; read-out: Mean EC50, HBeAg) [nM] | EC50 ([3]; read-out: Mean EC50, HBsAg) [nM] | EC50 ([3]; read-out: Mean EC50, pgRNA) [nM] | EC50 [3, 30] [nM] | Extracellular DNA content (% of DMSO control) [9] | Extracellular pgRNA content (% of DMSO control) [9] | EC50 [16] [nM] | EC50 [17] [nM] | EC50 [18] [nM] | EC50 [19] [nM] | EC50 [20] [nM] | EC50 [21] [nM] | EC50 [22] [nM] | EC50 [23] [nM] | EC50 [24] [nM] | further results |
| --- | --- | --- | --- | --- | --- | --- | --- | --- | --- | --- | --- | --- | --- | --- | --- | --- | --- | --- | --- | --- | --- |
| C=C1[C@H](CO)[C@@H](O)C[C@@H]1n1cnc2c(=O)[nH]c(N)nc21 [ETV, entecavir] | 1.2 ± 0.3 | > 100 | > 100 | > 100 | 0.8 | > 100 | > 100 | > 100 | < 0.1 | 19.5 % of DMSO control | 170 % of DMSO control | 1.9 ± 0.9 | 2.9 ± 0.3 | 0.6 ± 0.1 | 3.5 ± 1.6 | 1.1 ± 0.5 | 4.6 ± 0.6 | 0.4 ± 0.2 | 0.5 ± 0.3 | 1.9 ± 0.6 | EC50 ([1]; HepAD38, concomitantly determined with HepG2-NrtI^R, read-out: Mean EC50): 0.58 ± 0.15 nM; EC50 ([1]; Hepatitis B virus, HePAD38, HepAD38, concomitantly determined with HepG2-NrtI^R, read-out: Mean EC50): 0.6 nM; EC50 ([1]; Hepatitis B virus, HePAD38, comparison value of Figure S4 legend, read-out: EC50 against a wild-type strain): 1 nM; inhibition of viral antigen production [4]: weak and incomplete inhibition; activity at 1 µM [5]: 85%; activity at 0.1 µM [6]: 88%; activity at 1 µM [7]: 90%; activity at 0.1 µM [8]: 86%; secreted HBV DNA levels reduced by ([9]; HepAD38, ETV 0.01 μM): 80%; EC50 [10]: 1.9 ± 0.5 nM; EC50 [11]: 2.3 ± 0.5 nM; EC50 [12]: 1.2 ± 0.1 nM; EC50 [13]: 5 ± 1.9 nM; EC50 [14]: 1.2 to 5 nM; EC50 ([15]; 96 h, read-out: Mean EC50): 7.1 ± 1.2 nM; EC50 ([15]; 168 h, read-out: EC50 by Southern blot of intracellular viral core DNA): ~10 nM; EC50 [25]: 1.5 ± 0.3 nM; EC50 [26]: 1.5 ± 0.9 nM; reduction of HBV DNA levels [27]: ~1 log; HBV DNA levels ([27]; control 2.2 × 10^6): 1.3 × 10^5 copies/μl |
| O=C(Nc1cc(F)c(F)c(F)c1)c1ccc(F)c(S(=O)(=O)N2CCC(O)CC2)c1 [NVR 3-778] | 238 ± 33 | 8360 | 9260 | 7600 | 590 ± 71 | 4010 | 5040 | 4200 | 1680 | 1.0 % of DMSO control | 2.0 % of DMSO control | 178 ± 42 | 719 ± 58 | 210 ± 52 | > 10000 | 150 ± 48 | 208 ± 49 | 127 ± 73 | 726 ± 98 | 77.4 ± 0.4 | Levels of encapsidated pgRNA by Northern blotting [28]: virtually undetectable; Fold shift ([16]; Wild type): 1 fold; Fold shift ([17]; P25A vs wild type): 4 fold; Fold shift ([18]; D29G vs wild type): 1.2 fold; Fold shift ([19]; T33N vs wild type): >56 fold; Fold shift ([20]; Y38C vs wild type): 0.8 fold; Fold shift ([21]; Y38F vs wild type): 1.2 fold; Fold shift ([22]; I105L vs wild type): 0.7 fold; Fold shift ([23]; I105T vs wild type): 4.1 fold; Fold shift ([24]; T109I vs wild type): 0.4 fold; EC50 [25]: 161 ± 97 nM; Fold shift ([25]; T109M vs wild type): 0.9 fold; EC50 [26]: 887 ± 478 nM; Fold shift ([26]; Y118F vs wild type): 5 fold |
